This passage reports IC50, inhibition and EC50 results from US20230150970A1, “AMINOPYRIMIDINE DERIVATIVES AND THEIR USE AS ARYL HYDROCARBON RECEPTOR MODULATORS” (DONG-A ST CO., LTD., priority 2020, published 2023).

Series [1] addresses T1, AhR (Homo sapiens, UniProt P35869).
T1 sequence (P35869 11-848): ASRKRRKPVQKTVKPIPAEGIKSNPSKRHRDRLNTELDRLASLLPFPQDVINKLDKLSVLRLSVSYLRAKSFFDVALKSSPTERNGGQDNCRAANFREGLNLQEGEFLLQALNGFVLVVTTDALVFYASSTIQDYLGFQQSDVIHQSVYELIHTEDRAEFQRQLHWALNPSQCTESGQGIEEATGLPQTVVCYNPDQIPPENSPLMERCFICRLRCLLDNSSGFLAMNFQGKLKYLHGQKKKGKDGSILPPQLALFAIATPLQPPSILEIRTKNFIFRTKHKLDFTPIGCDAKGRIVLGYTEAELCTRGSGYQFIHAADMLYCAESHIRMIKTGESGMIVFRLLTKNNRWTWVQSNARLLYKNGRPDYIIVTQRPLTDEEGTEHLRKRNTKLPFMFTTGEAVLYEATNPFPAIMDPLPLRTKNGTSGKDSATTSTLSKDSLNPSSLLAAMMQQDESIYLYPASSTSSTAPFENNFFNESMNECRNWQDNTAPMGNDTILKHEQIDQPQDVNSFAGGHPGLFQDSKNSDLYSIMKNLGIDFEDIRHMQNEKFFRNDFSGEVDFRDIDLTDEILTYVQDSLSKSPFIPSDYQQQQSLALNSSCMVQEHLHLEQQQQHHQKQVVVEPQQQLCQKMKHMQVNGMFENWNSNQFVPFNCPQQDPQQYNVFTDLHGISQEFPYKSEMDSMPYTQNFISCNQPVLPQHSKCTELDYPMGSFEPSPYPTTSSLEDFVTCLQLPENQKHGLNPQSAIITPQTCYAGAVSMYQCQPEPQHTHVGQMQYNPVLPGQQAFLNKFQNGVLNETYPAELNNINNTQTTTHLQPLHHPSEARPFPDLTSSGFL
As to the kind of experiment: In Vitro Assay 1: XRE-luciferase reporter assay, antagonism in human cell line (HepG2). A general note: In a reporter assay the amount or activity of a reporter protein is the signal.

Series [2] addresses T1, AhR. As to the kind of experiment: In Vitro Assay 4: endogenous AhR activity assay (CYP1A1 and CYP1B1 mRNA, qRT-PCR, HepG2 cells). (In general: Quantitative PCR measures a nucleic acid by following its amplification.)
Experimental: In Vitro Assay 4: Endogenous AhR Activity Assay
HepG2 cells were seeded in 12-well plate (3×10^5 cells/well). A day after seeding, the cells were treated with TCDD (10 nM) alone or with compounds (123 nM) for 4 hours. Total RNA was extracted using Trizol (Thermo Fisher Scientific). cDNA synthesis and quantitative RT-PCR (qRT-PCR) assays were performed using PrimeScript™ RT Master Mix (TAKARA) and TB Green™ Premix Ex Taq™ II (TAKARA) in accordance with manufacturer's instruction. For the measurement of endogenous AhR activity, relative mRNA levels of CYP1A1 and CYP1B1 were quantitated relative to β-actin mRNA by the comparative Ct (ΔΔCt) method. The percent inhibitions were calculated according to:
For series [3], the target named is T1, AhR. As to the kind of experiment: In Vitro Assay 3: XRE-luciferase reporter assay, agonism in human cell line (HepG2). It is filed as cell-based. The arrangement: endogenous in cells; host or cells: HepG2. The following applies: HepG2, tryptophan free medium, 6 hours, no agonist, read-out: Assay 3: AhR-Luc Human Agonism (EC50). The protocol:
In Vitro Assay 3: Agonism in Human Cell Line
HepG2 (human hepatoma cell line) cells co-transfected with XRE-Luc and Nano-Luc plasmids were plated in tryptophan free medium containing 1% of dialyzed fetal bovine serum and incubated overnight at 37° C. in a CO2 incubator. After 24 hours, cells were treated for 6 hours with test compounds or not. […] As a positive control, cells were incubated with TCDD.

The mark [4] stands for this setting: Assay 1: AhR-Luc Human Antagonism (IC50, nM), values marked *: kynurenine 50 μM, 6 hours.
[5] abbreviates: HepG2, read-out: CYP1A1 (% Inhibition).
Where [6] appears, read: HepG2, read-out: CYP1B1 (% Inhibition).
[7] abbreviates: Assay 1: AhR-Luc Human Antagonism (IC50, nM), unmarked values: kynurenine 200 μM, 6 hours.
The mark [8] stands for this setting: read-out: Assay 1: AhR-Luc Human Antagonism (IC50), values marked *: kynurenine 50 μM, 6 hours.

Where two headings read alike, the source gives them in different places.

Usually IC50 stands for the point on the concentration scale where inhibition reaches its midpoint. As a reminder, the inhibition is how much of the control response was suppressed. In the case of `CC1CCN(c2cc(-c3ccc(Cl)cc3)nc(-c3cccnc3)n2)CC1` [Example 27, 4-(4-chlorophenyl)-6-(4-methylpiperidin-1-yl)-2-(pyridin-3-yl)pyrimidine], in series [1] (setting [4]), the IC50 was below 10 nM. Moreover, the values for the inhibition at 0.123 µM in series [2] (setting [5]) and in series [2] (setting [6]) were 68.4% and 90.3%, respectively.

`OCC1CCN(c2cc(-c3ccc(Cl)cc3)nc(-c3cccnc3)n2)CC1` [Example 42, (1-(6-(4-chlorophenyl)-2-(pyridin-3-yl)pyrimidin-4-yl)piperidin-4-yl)methanol] had a half-maximal inhibitory concentration (IC50) in series [1] (setting [4]) below 10 nM. Moreover, the values for the inhibition at 0.123 µM in series [2] (setting [5]) and in series [2] (setting [6]) were 98.8% and 99.3%, respectively.

As usually defined, the EC50 is the midpoint of the concentration-response curve. `C[C@@H]1CN(c2cc(-c3ccc(Cl)cc3)nc(-c3cccnc3)n2)C[C@H](C)O1` [Example 70, cis-4-(6-(4-chlorophenyl)-2-(pyridin-3-yl)pyrimidin-4-yl)-2,6-dimethylmorpholine]: the EC50 in series [3] (number of the cell) worked out at 758 nM. Further, the IC50 in series [1] (setting [4]) was above 1000 nM.

Regarding `Cc1cccc(N2CCN(c3cc(-c4ccc(Cl)cc4)nc(-c4cccnc4)n3)CC2)c1C` [Example 118, 4-(4-chlorophenyl)-6-(4-(2,3-dimethylphenyl)piperazin-1-yl)-2-(pyridin-3-yl)pyrimidine], the EC50 in series [3] (number of the cell) was determined as 1580 nM. In series [1] (setting [4]), this molecule had an IC50 of 10 to 100 nM.

`C[C@@H](O)[C@@H](C)Nc1cc(-c2ccc(Cl)cc2)nc(-c2cccnc2)n1` [Example 144, (2R,3R)-3-((6-(4-chlorophenyl)-2-(pyridin-3-yl)pyrimidin-4-yl)amino)butan-2-ol]: the EC50 in series [3] (number of the cell) was determined as 55.9 nM. Also, in series [1] (setting [4]), the IC50 fell in the range of 10 to 100 nM.

Consider `COCCN1CCC(CNc2cc(-c3ccc(Cl)cc3)nc(-c3cccnc3)n2)CC1` [Example 170, 6-(4-chlorophenyl)-N-((1-(2-methoxyethyl)piperidin-4-yl)methyl)-2-(pyridin-3-yl)pyrimidin-4-amine], for which the EC50 in series [3] (class in brackets of the cell) is above 10000 nM; in series [3] (number of the cell) it was above 30000 nM. The molecule further showed an IC50 in series [1] (setting [4]) of 10 to 100 nM.

Consider `CC(CO)N1CCN(c2cc(-c3ccc(Cl)cc3)nc(-c3cccnc3)n2)CC1` (centres unmarked) [Example 224, 2-(4-(6-(4-chlorophenyl)-2-(pyridin-3-yl)pyrimidin-4-yl)piperazin-1-yl)propan-1-ol], for which the EC50 in series [3] (class in brackets of the cell) was above 10000 nM; in series [3] (number of the cell) it was above 30000 nM. Further, in series [1] (setting [4]), the IC50 was below 10 nM.

As for `COCC(=O)NC1CCN(c2cc(-c3ccc(Cl)cc3)nc(-c3cccnc3)n2)CC1` [Example 225, N-(1-(6-(4-chlorophenyl)-2-(pyridin-3-yl)pyrimidin-4-yl)piperidin-4-yl)-2-methoxyacetamide], the results for the EC50 in series [3] (class in brackets of the cell) and in series [3] (number of the cell) were above 10000 nM and above 30000 nM, respectively. For the same molecule, the IC50 in series [1] (setting [4]) is below 10 nM.

As to `OCC1CCN(c2cc(-c3ccc(Cl)c(F)c3)nc(-c3cccnc3)n2)CC1` [Example 246, (1-(6-(4-chloro-3-fluorophenyl)-2-(pyridin-3-yl)pyrimidin-4-yl)piperidin-4-yl)methanol], the values for the EC50 in series [3] (class in brackets of the cell) and in series [3] (number of the cell) were above 10000 nM and above 30000 nM, respectively. Further, in series [1] (setting [7]), the IC50 was below 10 nM.

As for `OC[C@H]1CCN(c2cc(-c3ccc(C(F)(F)F)cc3)nc(-c3cccnc3)n2)C[C@@H]1O` [Example 260, (3R,4R)-4-(hydroxymethyl)-1-(2-(pyridin-3-yl)-6-(4-(trifluoromethyl)phenyl)pyrimidin-4-yl)piperidin-3-ol], the EC50 in series [3] (class in brackets of the cell) was above 10000 nM; in series [3] (number of the cell) it was above 30000 nM. The molecule also registered an IC50 in series [1] (setting [7]) below 10 nM.

For the molecule `OC[C@@H]1CCN(c2cc(-c3ccc(C(F)(F)F)cc3)nc(-c3cccnc3)n2)C[C@H]1O` [Example 262, (3S,4S)-4-(hydroxymethyl)-1-(2-(pyridin-3-yl)-6-(4-(trifluoromethyl)phenyl)pyrimidin-4-yl)piperidin-3-ol], the EC50 in series [3] (class in brackets of the cell) is above 10000 nM; in series [3] (number of the cell) it was above 30000 nM. The molecule further returned an IC50 in series [1] (setting [7]) below 10 nM.

In the case of `OCC1CCN(c2cc(-c3ccc(Cl)c(O)c3)nc(-c3cccnc3)n2)CC1` [Example 273, 2-chloro-5-(6-(4-(hydroxymethyl)piperidin-1-yl)-2-(pyridin-3-yl)pyrimidin-4-yl)phenol], the EC50 in series [3] (class in brackets of the cell) is above 10000 nM; in series [3] (number of the cell) it was above 30000 nM. Also, in series [1] (setting [7]), the IC50 was in the range of 10 to 100 nM.

In the case of `OCC1CCN(c2cc(-c3ccc(N4CCOCC4)c(F)c3)nc(-c3cccnc3)n2)CC1` [Example 276, (1-(6-(3-fluoro-4-morpholinophenyl)-2-(pyridin-3-yl)pyrimidin-4-yl)piperidin-4-yl)methanol], the EC50 in series [3] (class in brackets of the cell) is above 10000 nM; in series [3] (number of the cell), above 30000 nM. Moreover, the IC50 in series [1] (setting [7]) is below 10 nM.

On to `OCC1CCN(c2cc(-c3ccc(OC4CCCCO4)cc3)nc(-c3cccnc3)n2)CC1` (centres unmarked) [Example 278, (1-(2-(pyridin-3-yl)-6-(4-((tetrahydro-2H-pyran-2-yl)oxy)phenyl)pyrimidin-4-yl)piperidin-4-yl)methanol], for which the EC50 in series [3] (class in brackets of the cell) was above 10000 nM; in series [3] (number of the cell) it was above 30000 nM. Besides, the IC50 in series [1] (setting [7]) was in the range of 10 to 100 nM.

Regarding `OCC1CCN(c2cc(-c3ccc(N4CCOCC4)nc3)nc(-c3cccnc3)n2)CC1` [Example 289, (1-(6-(6-morpholinopyridin-3-yl)-2-(pyridin-3-yl)pyrimidin-4-yl)piperidin-4-yl)methanol], the figures for the EC50 in series [3] (class in brackets of the cell) and in series [3] (number of the cell) were above 10000 nM and above 30000 nM, respectively. For the same molecule, in series [1] (setting [7]), the IC50 is below 10 nM.

Consider `O[C@H]1CON(c2cc(-c3ccc(C(F)(F)F)cc3)nc(-c3cccnc3)n2)C1` [Example 314, (R)-2-(2-(pyridin-3-yl)-6-(4-(trifluoromethyl)phenyl)pyrimidin-4-yl)isoxazolidin-4-ol], for which the half-maximal effective concentration (EC50) in series [3] (class in brackets of the cell) is above 10000 nM; in series [3] (number of the cell), above 30000 nM. This molecule gave an IC50 in series [1] (setting [7]) below 10 nM.

For the molecule `O=C(CCCO)N1CCN(c2cc(-c3ccc(Cl)cc3)nc(-c3cccnc3)n2)CC1` [Example 361, 1-(4-(6-(4-chlorophenyl)-2-(pyridin-3-yl)pyrimidin-4-yl)piperazin-1-yl)-4-hydroxybutan-1-one], the EC50 in series [3] (class in brackets of the cell) was above 10000 nM; in series [3] (number of the cell) it was above 30000 nM. The molecule also showed an IC50 in series [1] (setting [7]) below 10 nM.

The molecule `Oc1ncccc1-c1nc(-c2ccc(N3CCOCC3)c(F)c2)cc(N2CC[C@H](O)C2)n1` [Example 373, (S)-3-(4-(3-fluoro-4-morpholinophenyl)-6-(3-hydroxypyrrolidin-1-yl)pyrimidin-2-yl)pyridin-2-ol] came in with an IC50 in series [1] (setting [7]) of 10 to 100 nM.

`CN(C)CCNc1ccc(-c2cc(N3CC[C@H](O)C3)nc(-c3cccnc3)n2)cc1` [Example 374, (S)-1-(6-(4-((2-(dimethylamino)ethyl)amino)phenyl)-2-(pyridin-3-yl)pyrimidin-4-yl)pyrrolidin-3-ol]: the IC50 in series [1] (setting [7]) is above 1000 nM.

For the molecule `CN(C)CCOc1ccc(-c2cc(N3CC[C@H](O)C3)nc(-c3cccnc3)n2)cc1` [Example 375, (S)-1-(6-(4-(2-(dimethylamino)ethoxy)phenyl)-2-(pyridin-3-yl)pyrimidin-4-yl)pyrrolidin-3-ol], in series [1] (setting [7]), the IC50 was above 1000 nM.

In series [1] (setting [7]), `OCCNc1ccc(-c2cc(N3CC[C@H](O)C3)nc(-c3cccnc3)n2)cc1` [Example 376, (S)-1-(6-(4-((2-hydroxyethyl)amino)phenyl)-2-(pyridin-3-yl)pyrimidin-4-yl)pyrrolidin-3-ol] yielded an IC50 of 100 to 1000 nM.

Consider “(R)-(4-(6-(4-chlorophenyl)-2-(pyridin-3-yl)pyrimidin-4-yl)piperazin-2-yl)methanol [Example 79]”, for which the IC50 in series [1] (setting [8]) was above 1000 nM.

“Cis-4-((6-(4-chlorophenyl)-2-(pyridin-3-yl)pyrimidin-4-yl)amino)cyclohexan-1-ol [Example 216]”: the IC50 in series [1] (setting [8]) lay in the range of 10 to 100 nM.

Regarding “Cis-(4-((6-(4-chlorophenyl)-2-(pyridin-3-yl)pyrimidin-4-yl)amino)cyclohexyl)methanol [Example 215]”, in series [1] (setting [8]), the IC50 was in the range of 10 to 100 nM.

Regarding “Trans-4-((6-(4-chlorophenyl)-2-(pyridin-3-yl)pyrimidin-4-yl)amino)cyclohexan-1-ol [Example 217]”, in series [1] (setting [8]), the IC50 lay in the range of 10 to 100 nM.
